Measured values as given in US7504416B2, “4-substituted quinolines as antitumor agents” (AstraZeneca AB, priority 2000, dated 2009).

System: HT29 human colon tumour cells
Assay: Cell proliferation assay
Format: cell-based
Conditions: HT-29, 72 hours incubation
Experimental: Cell Proliferation Assays
Cells were seeded into multi-well plates at 20 000-40 000 cells/ml in growth medium containing 5% FCS and incubated overnight at 37° C. The compounds were prepared in fresh medium at an appropriate concentration and added to the wells containing the cells. These were then incubated for a further 72 hours. Cells were then either removed from the wells by incubating with trypsin/EDTA and counted using a Coulter counter, or treated with XTT/PMS in PBSA and optical densities read at 450 nm. […] For example, Compound No 3 gave an IC50 of 1.0 μM in HT29 human colon tumour cells.

- IC50: 1 µM
Structure (SMILES): COc1cc2ncc(C#N)c(Nc3ccc(Oc4ccccc4OCC(=O)NCC(=O)N4CCN(C)CC4)cc3)c2cc1OC [Compound 3]
